Measured values: ChEMBL document CHEMBL1126625, “7-Azetidinylquinolones as antibacterial agents. Synthesis and structure-activity relationships” (J Med Chem, 1993)
Values after ≈ are worked out from the molar mass of the structure shown.

Tests used:
Assay type in all cases: functional
Bacillus cereus = experiment: Minimum inhibitory concentration (MIC) preventing growth of Bacillus cereus
Bacillus subtilis = experiment: Minimum inhibitory concentration (MIC) preventing growth of Bacillus subtilis
Escherichia coli = experiment: Minimum inhibitory concentration (MIC)preventing growth of Escherichia coli
Klebsiella pneumoniae = experiment: Minimum inhibitory concentration (MIC)preventing growth of Klebsiella pneumoniae
Morganella morganii = experiment: Minimum inhibitory concentration (MIC) preventing growth of Morganella morganii
Proteus vulgaris = experiment: Minimum inhibitory concentration (MIC) preventing growth of Proteus vulgaris
[1] = test system: Staphylococcus epidermidis; experiment: pIn vitro minimum inhibitory concentration (MIC) that prevented growth of Staphylococcus epidermidis ATCC 155-1 (Se) after incubation at 37 degree C for 18 h
Staphylococcus aureus = experiment: Minimum inhibitory concentration (MIC) preventing growth of […]
Enterococcus faecalis = experiment: Minimum inhibitory concentration (MIC) preventing growth of Streptococcus faecalis ATCC 10541
Enterobacter cloacae = experiment: Minimum inhibitory concentration (MIC)preventing growth of Enterobacter cloacae
Pseudomonas aeruginosa = experiment: Minimum inhibitory concentration (MIC)preventing growth of Pseudomonas aeruginosa

- MIC (Bacillus cereus): 0.5 µg/mL (≈ 1.44 µM)
- MIC (Bacillus subtilis): 0.12 µg/mL (≈ 0.345 µM)
- MIC (Escherichia coli): 0.12 µg/mL (≈ 0.345 µM)
- MIC (Klebsiella pneumoniae): 0.015 µg/mL (≈ 0.0432 µM)
- MIC (Morganella morganii): 0.25 µg/mL (≈ 0.72 µM)
- MIC (Proteus vulgaris): 1 µg/mL (≈ 2.88 µM)
- MIC [1]: 0.25 µg/mL (≈ 0.72 µM)
- MIC (Staphylococcus aureus): 0.5 µg/mL (≈ 1.44 µM)
- MIC (Enterococcus faecalis): 0.5 µg/mL (≈ 1.44 µM)
- MIC (Enterobacter cloacae): 0.12 µg/mL (≈ 0.345 µM)
- MIC (Pseudomonas aeruginosa): 2 µg/mL (≈ 5.76 µM)
Compound: CC1COc2c(N3CC(C)(N)C3)c(F)cc3c(=O)c(C(=O)O)cn1c23 (stereo unspecified)
